Experimental data from US9944602B2, “Piperidinone herbicides” (E. I. DU PONT DE NEMOURS AND COMPANY, priority 2014, dated 2018).

How the values were obtained:
Format in all cases: in vivo
[1] = system: barnyardgrass (Echinochloa crus-galli); assay: Test A preemergence barnyardgrass; settings: 0 to 100 scale; for pest or weed control at 125 g/ha: 125 g ai/ha
Method in brief: (§1)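 Scores reflect visual comparison with untreated controls after ~10 d in the greenhouse (0 none, 100 complete control). Treatment was a surfactant-containing non-phytotoxic solvent formulation, sprayed onto soil after seeding or onto seedlings at one to two leaves, 2–10 cm tall.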

kochia (Kochia scoparia) [2] = assay: Test A preemergence kochia; settings: Bassia scoparia, pre-emergence, 240 h, 0 to 100 scale, 0 no effect, 100 complete control, read-out: Kochia plant response rating; for pest or weed control at 125 g/ha: 125 g ai/ha; for pest or weed control at 500 g/ha: 500 g ai/ha
Method in brief: as §1

[3] = system: ragweed (common ragweed, Ambrosia elatior); assay: Test A preemergence ragweed; settings: Ambrosia artemisiifolia, pre-emergence, 240 h, 0 to 100 scale, 0 no effect, 100 complete control, read-out: Ragweed plant response rating; for pest or weed control at 125 g/ha: 125 g ai/ha; for pest or weed control at 500 g/ha: 500 g ai/ha
Method in brief: as §1

[4] = system: ryegrass, Italian (Italian ryegrass, Lolium multiflorum); assay: Test A preemergence ryegrass, Italian; settings: Lolium multiflorum, pre-emergence, 240 h, 0 to 100 scale, 0 no effect, 100 complete control, read-out: Ryegrass, Italian plant response rating; for pest or weed control at 125 g/ha: 125 g ai/ha; for pest or weed control at 500 g/ha: 500 g ai/ha
Method in brief: as §1

[5] = system: foxtail, giant (giant foxtail, Setaria faberii); assay: Test A preemergence foxtail, giant; settings: Setaria faberi, pre-emergence, 240 h, 0 to 100 scale, 0 no effect, 100 complete control, read-out: Foxtail, Giant plant response rating; for pest or weed control at 125 g/ha: 125 g ai/ha; for pest or weed control at 500 g/ha: 500 g ai/ha
Method in brief: as §1

[6] = system: pigweed (Amaranthus retroflexus); assay: Test A preemergence pigweed; settings: Amaranthus retroflexus, pre-emergence, 240 h, 0 to 100 scale, 0 no effect, 100 complete control, read-out: Pigweed plant response rating; for pest or weed control at 125 g/ha: 125 g ai/ha; for pest or weed control at 500 g/ha: 500 g ai/ha
Method in brief: as §1

[7] = system: barnyardgrass (Echinochloa crus-galli); assay: Test A postemergence barnyardgrass; settings: Echinochloa crus-galli, post-emergence, 240 h, 0 to 100 scale, 0 is no effect, 100 is complete control, read-out: Plant response rating, Barnyardgrass; for pest or weed control at 125 g/ha: 125 g ai/ha; for pest or weed control at 500 g/ha: 500 g ai/ha
Method in brief: as §1

kochia (Kochia scoparia) [8] = assay: Test A postemergence kochia; settings: Bassia scoparia, post-emergence, 240 h, 0 to 100 scale, 0 is no effect, 100 is complete control, read-out: Plant response rating, Kochia; for pest or weed control at 125 g/ha: 125 g ai/ha; for pest or weed control at 500 g/ha: 500 g ai/ha
Method in brief: as §1

[9] = system: ragweed (common ragweed, Ambrosia elatior); assay: Test A postemergence ragweed; settings: Ambrosia artemisiifolia, post-emergence, 240 h, 0 to 100 scale, 0 is no effect, 100 is complete control, read-out: Plant response rating, Ragweed; for pest or weed control at 125 g/ha: 125 g ai/ha; for pest or weed control at 500 g/ha: 500 g ai/ha
Method in brief: as §1

[10] = system: ryegrass, Italian (Italian ryegrass, Lolium multiflorum); assay: Test A postemergence ryegrass, Italian; settings: Lolium multiflorum, post-emergence, 240 h, 0 to 100 scale, 0 is no effect, 100 is complete control, read-out: Plant response rating, Ryegrass, Italian; for pest or weed control at 125 g/ha: 125 g ai/ha; for pest or weed control at 500 g/ha: 500 g ai/ha
Method in brief: as §1

[11] = system: foxtail, giant (giant foxtail, Setaria faberii); assay: Test A postemergence foxtail, giant; settings: Setaria faberi, post-emergence, 240 h, 0 to 100 scale, 0 is no effect, 100 is complete control, read-out: Plant response rating, Foxtail, Giant; for pest or weed control at 125 g/ha: 125 g ai/ha; for pest or weed control at 500 g/ha: 500 g ai/ha
Method in brief: as §1

[12] = system: pigweed (Amaranthus retroflexus); assay: Test A postemergence pigweed; settings: Amaranthus retroflexus, post-emergence, 240 h, 0 to 100 scale, 0 is no effect, 100 is complete control, read-out: Plant response rating, Pigweed; for pest or weed control at 125 g/ha: 125 g ai/ha; for pest or weed control at 500 g/ha: 500 g ai/ha
Method in brief: as §1

[13] = system: wheat (Triticum aestivum); assay: Test A postemergence wheat; settings: Triticum aestivum, post-emergence, 240 h, 0 to 100 scale, 0 is no effect, 100 is complete control, read-out: Plant response rating, Wheat; for plant injury at 125 g/ha: 125 g ai/ha; for plant injury at 500 g/ha: 500 g ai/ha
Method in brief: as §1

corn (Zea mays) = assay: Test A postemergence corn; settings: Zea mays, post-emergence, 240 h, 0 to 100 scale, 0 is no effect, 100 is complete control; for Corn plant response rating (crop injury, 0 = no effect, 100 = complete kill) at 125 g/ha: 125 g ai/ha; for Corn plant response rating (crop injury, 0 = no effect, 100 = complete kill) at 500 g/ha: 500 g ai/ha
Method in brief: as §1

[14] = system: blackgrass (Alopecurus myosuroides); assay: Test A postemergence blackgrass; settings: Alopecurus myosuroides, post-emergence, 240 h, 0 to 100 scale, 0 is no effect, 100 is complete control, read-out: Plant response rating, Blackgrass; for pest or weed control at 125 g/ha: 125 g ai/ha; for pest or weed control at 500 g/ha: 500 g ai/ha
Method in brief: as §1

[15] = system: galium (catchweed bedstraw, Galium aparine); assay: Test A postemergence galium; settings: Galium, post-emergence, 240 h, 0 to 100 scale, 0 is no effect, 100 is complete control, read-out: Plant response rating, Galium; for pest or weed control at 125 g/ha: 125 g ai/ha; for pest or weed control at 500 g/ha: 500 g ai/ha
Method in brief: as §1

rice (Oryza sativa) = assay: Test B flooded paddy test rice; settings: Oryza sativa, Table B, Flood, scale 0 to 100, read-out: Plant response rating; for plant injury at 250 g/ha: 250 g ai/ha
Method in brief: (§2)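 2-leaf plants; flood 3 cm over soil; cpd into paddy water; water depth kept; greenhouse 13–15 d; visual rating vs controls.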

[16] = system: sedge, umbrella (small-flower umbrella sedge, Cyperus difformis); assay: Test B flooded paddy test sedge, umbrella; settings: Cyperus difformis, Table B, Flood, scale 0 to 100, read-out: Plant response rating; for pest or weed control at 250 g/ha: 250 g ai/ha
Method in brief: as §2

[17] = system: ducksalad (Heteranthera limosa); assay: Test B flooded paddy test ducksalad; settings: Heteranthera limosa, Table B, Flood, scale 0 to 100, read-out: Plant response rating; for pest or weed control at 250 g/ha: 250 g ai/ha
Method in brief: as §2

[18] = system: barnyardgrass (Echinochloa crus-galli); assay: Test B flooded paddy test barnyardgrass; settings: Echinochloa crus-galli, Table B, Flood, scale 0 to 100, read-out: Plant response rating; for pest or weed control at 250 g/ha: 250 g ai/ha
Method in brief: as §2

[19] = Echinochloa crus-galli, pre-emergence, 240 h, 0 no effect, 100 complete control, read-out: Barnyardgrass plant response rating

In the case of O=C1NCCC(c2ccc(C(F)(F)F)cc2)C1C(=O)Nc1ccccc1F (stereo not shown) [Compound 14, N-(2-fluorophenyl)-2-oxo-4-[4-(trifluoromethyl)phenyl]-3-piperidinecarboxamide], the “Plant response rating, Barnyardgrass” value ([1]; 500 g ai/ha, 0 is no effect, 100 is complete control) is reported as 90, the pest or weed control at 125 g/ha [1, 19] is reported as 50% and the pest or weed control at 125 g/ha (kochia (Kochia scoparia) [2]) is reported as 0%. It also gave a pest or weed control at 500 g/ha (kochia (Kochia scoparia) [2]) of 20%, a pest or weed control at 125 g/ha [3] of 0% and a pest or weed control at 500 g/ha [3] of 0%. It also gave a pest or weed control at 125 g/ha [4] of 0%, a pest or weed control at 500 g/ha [4] of 0% and a pest or weed control at 125 g/ha [5] of 30%. The pest or weed control at 500 g/ha [5] was 90%, the pest or weed control at 125 g/ha [6] was 0% and the pest or weed control at 500 g/ha [6] was 0%. The pest or weed control at 125 g/ha [7] was 20%, the pest or weed control at 500 g/ha [7] was 90% and the pest or weed control at 125 g/ha (kochia (Kochia scoparia) [8]) was 0%. It also gave a pest or weed control at 500 g/ha (kochia (Kochia scoparia) [8]) of 0%, a pest or weed control at 125 g/ha [9] of 0% and a pest or weed control at 500 g/ha [9] of 0%. It also gave a pest or weed control at 125 g/ha [10] of 0%, a pest or weed control at 500 g/ha [10] of 0% and a pest or weed control at 125 g/ha [11] of 30%. It also gave a pest or weed control at 500 g/ha [11] of 90%, a pest or weed control at 125 g/ha [12] of 0% and a pest or weed control at 500 g/ha [12] of 0%. For the same molecule, the plant injury at 125 g/ha [13] was 0%, the plant injury at 500 g/ha [13] was 0% and the Corn plant response rating (crop injury, 0 = no effect, 100 = complete kill) at 125 g/ha (corn (Zea mays)) was 0%. For the same molecule, the Corn plant response rating (crop injury, 0 = no effect, 100 = complete kill) at 500 g/ha (corn (Zea mays)) was 0%, the pest or weed control at 125 g/ha [14] was 0% and the pest or weed control at 500 g/ha [14] was 0%. It also gave a pest or weed control at 125 g/ha [15] of 0%, a pest or weed control at 500 g/ha [15] of 0% and a plant injury at 250 g/ha (rice (Oryza sativa)) of 0%. For the same molecule, the plant injury at 1000 g/ha (rice (Oryza sativa); 1000 g ai/ha) was 0%, the pest or weed control at 250 g/ha [16] was 0% and the pest or weed control at 1000 g/ha ([16]; 1000 g ai/ha) was 0%. The pest or weed control at 250 g/ha [17] was 80%, the pest or weed control at 1000 g/ha ([17]; 1000 g ai/ha) was 100% and the pest or weed control at 250 g/ha [18] was 30%. For the same molecule, the pest or weed control at 1000 g/ha ([18]; 1000 g ai/ha) was 30%.
With O=C1NCC[C@H](c2cccc(C(F)(F)F)c2)[C@H]1C(=O)Nc1cccc(F)c1F [Compound 21, (3R,4S)—N-(2,3-difluorophenyl)-2-oxo-4-[3-(trifluoromethyl)phenyl]-3-piperidinecarboxamide] the pest or weed control at 125 g/ha [1, 19] was 90%, the pest or weed control at 500 g/ha ([1]; Echinochloa crus-galli, pre-emergence, 240 h, 500 g ai/ha, 0 no effect, 100 complete control, read-out: Barnyardgrass plant response rating) was 90% and the pest or weed control at 125 g/ha (kochia (Kochia scoparia) [2]) was 0%. The pest or weed control at 500 g/ha (kochia (Kochia scoparia) [2]) was 0%, the pest or weed control at 125 g/ha [3] was 0% and the pest or weed control at 500 g/ha [3] was 0%. It also gave a pest or weed control at 125 g/ha [4] of 0%, a pest or weed control at 500 g/ha [4] of 60% and a pest or weed control at 125 g/ha [5] of 90%. The pest or weed control at 500 g/ha [5] was 90%, the pest or weed control at 125 g/ha [6] was 0% and the pest or weed control at 500 g/ha [6] was 0%. It also gave a pest or weed control at 125 g/ha [7] of 90%, a pest or weed control at 500 g/ha [7] of 90% and a pest or weed control at 125 g/ha (kochia (Kochia scoparia) [8]) of 0%. For the same molecule, the pest or weed control at 500 g/ha (kochia (Kochia scoparia) [8]) was 0%, the pest or weed control at 125 g/ha [9] was 0% and the pest or weed control at 500 g/ha [9] was 0%. It also gave a pest or weed control at 125 g/ha [10] of 30%, a pest or weed control at 500 g/ha [10] of 40% and a pest or weed control at 125 g/ha [11] of 80%. It also gave a pest or weed control at 500 g/ha [11] of 80%, a pest or weed control at 125 g/ha [12] of 0% and a pest or weed control at 500 g/ha [12] of 20%. It also gave a plant injury at 125 g/ha [13] of 0%, a plant injury at 500 g/ha [13] of 60% and a Corn plant response rating (crop injury, 0 = no effect, 100 = complete kill) at 125 g/ha (corn (Zea mays)) of 50%. The Corn plant response rating (crop injury, 0 = no effect, 100 = complete kill) at 500 g/ha (corn (Zea mays)) was 80%, the pest or weed control at 125 g/ha [14] was 60% and the pest or weed control at 500 g/ha [14] was 80%. For the same molecule, the pest or weed control at 125 g/ha [15] was 0%, the pest or weed control at 500 g/ha [15] was 20% and the plant injury at 250 g/ha (rice (Oryza sativa)) was 10%. For the same molecule, the pest or weed control at 250 g/ha [16] was 0%, the pest or weed control at 250 g/ha [17] was 100% and the pest or weed control at 250 g/ha [18] was 75%.
